# Test results published in paper PMC3433420 (PLoS ONE, 2012).
# Residues, ends and D or L forms follow the SMILES beside them.
# Key:
# [1] = tested on: TENC1 SH2 domain; test: FP saturation binding assay; conditions: Tensin family SH2 domains
# [2] = target: T1, TNS3 SH2 domain (Homo sapiens, UniProt Q68CZ2); test: FP saturation binding assay; conditions: FP saturation assay; Tensin family SH2 domains
# T1 sequence (Q68CZ2 1172-1282 limits assumed): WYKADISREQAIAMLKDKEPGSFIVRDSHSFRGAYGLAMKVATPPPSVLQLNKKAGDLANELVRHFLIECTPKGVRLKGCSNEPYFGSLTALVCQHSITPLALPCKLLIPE
# [3] = tested on: 93 human SH2 domains and 2 phosphotyrosine binding (PTB) domains; test: FP saturation binding assay, whole domain panel (protein named per line or not at all)
# Procedure: (See Figure 1A) Rhodamine-labeled peptides were dissolved in assay buffer (20 mM HEPES, 100 mM KCl, 0.1% Tween-20, 5 mM DTT, pH 7.8), diluted to a concentration of 20 nM, and plated into black 384-well plates (Corning, Corning, NY) at 5 µL/well using a Perkin Elmer EP3 pipetting workstation (V&P Scientific, Inc., San Diego, CA). SH2, PTB, and thioredoxin control proteins were plated into the first column of 2 mL 96-well plates (Corning) at a concentration of 20 µM and serially diluted 1∶2 into freezing buffer (300 mM NaCl, 50 mM Na2PO4, pH 8, 20% glycerol v/v) eleven times using a Tecan Freedom EVO 100 workstation (Tecan, Männedorf, Switzerland). For the interaction assay, 5 µL of each of the twelve protein concentrations was added to the peptide-containing 384-well plates via the EP3 resulting in a protein dilution range of 0.002–10 µM and a final volume of 10 µL; peptide concentration was fixed at 10 nM. Peptide/protein samples were incubated for 20 minutes at room temperature in the dark and fluorescence polarization (FP) was measured in an Analyst GT multimode reader (Molecular Devices, Sunnyvale, CA) with excitation and emission wavelengths of 530 nm and 555 nm, respectively. Experimental values were output as millipolarization (mP) units and imported into MATLAB (The MathWorks, Inc., Natick, MA) in which equation (1) was used to determine dissociation constants (KDs) for each protein/peptide pairing by least squares nonlinear regression. [drawing 1] (1)
# To scale up the number of interaction measurements while minimizing variation introduced by human intervention, we utilized an automated robotic platform (Figure 1A; see experimental procedures and Supplementary Methods) to transfer, incubate, and measure the fluorescence polarization (FP) induced from interactions of a titration series of SH2 domains with synthetic rhodamine-labeled ErbB phosphopeptides. Experimental values were output as millipolarization (mP) units and equation (1) was used to fit apparent midpoint dissociation constants (KDs) for each protein/peptide pair using non-linear regression (see experimental procedures).
# For this interaction analysis, we synthesized and queried the interaction of phosphopeptides corresponding to 89 of 92 ErbB family intracellular tyrosines with 93 SH2 domains. Because nine peptide sequences share 100% identity between the receptors in the 4 to 7 amino acids C-terminal to the phosphorylated tyrosine, our peptide set consisted of 81 phosphopeptides corresponding to the 89 unique tyrosine containing sequences (Table S2). This peptide set represents a 50% increase over the three PM studies performed to date. We were therefore able to obtain a more systematic and unbiased view of the relative SH2 domain recruitment potential of each receptor. Although most ErbB receptor auto-phosphorylation sites have been detected frequently by mass spectrometry because of their high relative modification stoichiometry, non-auto-phosphorylation sites have been reported less frequently in the literature (Table S3). We reasoned that many physiologically relevant and uncharacterized ErbB tyrosines of low phosphorylation stoichiometry may exist and that our comprehensive interaction analysis might implicate their importance in mediating physiological interactions. We tested the majority of interactions (7099/8160 (87.0%); Figure S3) three or more times and reported standard error for all interactions that were detected in at least three FP runs (Table S4). […] Analysis of this polarization data may be useful for inferring how SH2 proteins bind to different peptide sequences. Larger proteins and proteins binding closer to the N-terminal rhodamine tag of a given peptide would be expected to induce higher maximal polarization (the calculated maximal polarization value at infinite protein concentration) than proteins binding farther from the tag. In addition to phosphopeptides, we queried a representative set of 27 non-phosphopeptides against the entire domain set. […]
# [4] = target: T2, TNS1 SH2 domain (Homo sapiens, UniProt Q9HBL0); test: FP saturation binding assay; conditions: Tensin family SH2 domains
# T2 sequence (Q9HBL0 1567-1676 limits assumed): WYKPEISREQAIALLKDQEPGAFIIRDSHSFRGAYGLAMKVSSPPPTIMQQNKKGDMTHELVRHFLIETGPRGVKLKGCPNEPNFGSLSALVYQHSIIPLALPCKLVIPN
# [5] = target: T3, PLCG1-C SH2 domain (Homo sapiens, UniProt P19174); test: Surface plasmon resonance (Biacore 3000); format: binding; conditions: SPR, NA = no interaction detected
# T3 construct: The 6X His-tagged SH2 domain proteins used in the assay, PLCG1-C, SHC4, VAV2; thioredoxin; made in house; host or cells: E. coli BL21(DE3)pLysS
# T3 sequence (P19174 668-756 limits assumed): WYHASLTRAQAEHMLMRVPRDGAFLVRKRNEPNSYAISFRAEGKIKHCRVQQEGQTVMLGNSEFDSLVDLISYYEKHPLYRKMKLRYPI
# Procedure: (§1) All SPR experiments were performed using Biacore 3000 (GE HealthCare, Piscataway, NJ) instrumentation. 6X His-tagged SH2 domain proteins were immobilized on a nitriloacetic acid (NTA) sensor chip (GE HealthCare, Piscataway, NJ) charged with Ni^2+ ions. Dye-free ErbB family peptides were applied to the sensor chip in a single flow cell in solution phase (while the other flow cell was used as a reference control) and binding events were measured under equilibrium conditions. FP false positive [drawing 7] (FPR), false discovery [drawing 8] (FDR), and false negative [drawing 9] (FNR) rates were calculated by defining true positives (TP) as interactions detected by both FP and SPR, true negatives (TN) as interactions detected by neither FP nor SPR; false positives as interactions identified by FP but not validated by SPR; and false negatives (FN) as interactions missed by FP but detected by SPR. Additional details for all methods are provided in the Supplementary Methods.
# (§2) A randomly selected set of 12 recombinant SH2 domain proteins and unlabeled (rhodamine dye free) peptides (9 ErbB, 2 GAB1, 2 KIT, 2 MET) were generated for the surface plasmon resonance (SPR) validation study. The 6X His-tagged SH2 domain proteins used in the assay, PLCG1-C, SHC4, VAV2, TNS3, PIK3R3-C, SYK-C, PIK3R1-N, SUPT6H, CRKL, TEC, SHB, and SHC3 were produced and purified as previously described (see “SH2 and PTB domain proteins” section and Jones et al., 2006). Fresh protein stocks were generated so as to avoid bias incurred from proteins previously used in the FP assays. 13-mer peptides corresponding to ErbB1 pY801, ErbB1 pY900, ErbB1 pY978, ErbB1 pY1069, ErbB2 pY685, ErbB pY803, ErbB3 pY912, ErbB4 pY833, ErbB4 pY906, GAB1 pY183, GAB1 pY472, KIT pY570, KIT pY936, MET pY1093 and MET pY1313, were synthesized successfully for the assay using previously described approaches (see “FP competitor peptide synthesis” section). For SPR detection via the Biacore 3000 (GE HealthCare, Piscataway, NJ), His-tagged SH2 domains were immobilized on Biacore NTA sensor chips (GE HealthCare, Piscataway, NJ) pre-charged with Ni^2+ ions in one flow cell while the second served as a negative control reference cell. Peptides were introduced in solution phase to both cells and relative response units (RUs) were recorded from output sensograms. Nine concentrations of peptide and a buffer control, in duplicate, were used to determine KDs using the equilibrium method (best-fit simultaneous modeling for peptide association and disassociation curves).
# [6] = target: T4, PIK3R3-C SH2 domain (Homo sapiens, UniProt Q92569); test: Surface plasmon resonance (Biacore 3000); format: binding; conditions: SPR, NA = no interaction detected
# T4 construct: thioredoxin; made in house; host or cells: E. coli BL21(DE3)pLysS
# Procedure: as §1, §2
# [7] = target: T3, PLCG1-C SH2 domain; test: biochemical; format: binding; conditions: FP, PLCG1-C; mean; NA = no interaction detected
# [8] = target: T4, PIK3R3-C SH2 domain; test: biochemical; format: binding; conditions: FP, PIK3R3-C; mean; NA = no interaction detected
# [9] = target: T5, RASA1-N SH2 domain (Homo sapiens, UniProt P20936); test: FP saturation binding assay; conditions: read-out: Ki ( exp FP); competing peptide, RASA1N; Ki expected from FP; NI = no interaction
# T5 sequence (P20936 181-272 limits assumed): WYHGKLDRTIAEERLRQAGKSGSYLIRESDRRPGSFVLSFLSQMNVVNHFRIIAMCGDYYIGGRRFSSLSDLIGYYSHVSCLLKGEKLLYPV
# [10] = target: GRB7 SH2 domain (Homo sapiens, UniProt Q14451); test: FP saturation binding assay; conditions: KD for GRB7, FP saturation assay
# Sequence of GRB7 SH2 domain (Q14451 431-527 limits assumed): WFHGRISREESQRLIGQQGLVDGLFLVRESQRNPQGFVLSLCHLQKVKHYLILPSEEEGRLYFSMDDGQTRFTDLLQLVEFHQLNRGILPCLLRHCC
# [11] = target: T5, RASA1-N SH2 domain; test: FP competition assay; format: binding; design: 6X His; thioredoxin; made in house; host or cells: E. coli BL21(DE3)pLysS; conditions: RASA1N; labeled peptide ErbB2pY1196; Fig. 3 graph A; read-out: Ki (obs)
# Procedure: Unlabeled phosphopeptides were synthesized with some modifications to the previously described protocol. […] Unlabeled competitor peptides were prepared at 11 serial 1∶3 dilutions in assay buffer; one control with no unlabeled competitor peptides was also included with each experimental set. The fluorescent peptide, protein, and unlabeled peptide mixtures were allowed to incubate for a minimum of 20 minutes in 384-well plates and polarization signals were measured using the Analyst GT multimode reader as previously described above. Inhibition curves were constructed by four-parameter log-logistic regression using the “drc” package in R with the parameters for maximum and minimum fluorescence fixed according to Z’ factor positive and negative control values. IC50 values were estimated from these fits under a one-site competition binding model and Ki calculated according to the equation developed by.
compound,measurement,setting,value
AKGMpYYLEEHGMd [ErbB3 pY823],affinity of recruitment of TENC1,[1],relatively high affinity
same,affinity of recruitment of TNS3,[2],relatively high affinity
same,interaction with the SH2/PTB domain panel,[3]; KD <= 20 µM counted as interaction,reproducibly interacted at high affinity with many SH2 domains
same,SH2 domains found to interact,"[3]; high-confidence interactions (Table S11, Figure S14)",interacted with Src kinase and tensin family SH2 domains
same,affinity of recruitment of TNS1,[4],relatively high affinity
CC(C)C[C@H](NC(=O)[C@H](CCC(=O)O)NC(=O)[C@H](Cc1c[nH]c2ccccc12)NC(=O)[C@@H](NC(=O)[C@@H](NC(=O)[C@@H](NC(=O)CNC(=O)[C@H](Cc1ccc(OP(=O)(O)O)cc1)NC(=O)[C@H](CO)NC(=O)[C@H](Cc1c[nH]c2ccccc12)NC(=O)[C@@H](NC(=O)[C@@H](N)CC(=O)O)C(C)C)C(C)C)[C@@H](C)O)C(C)C)C(=O)N[C@@H](CC(=O)O)C(=O)O [ErbB1 900],Kd,[5],10.9 µM
same,Kd,[6],1.47 µM
same,Kd,[7],15.5 µM
same,Kd,[8],5.83 µM
CSCC[C@H](NC(=O)CNC(=O)[C@@H](N)CCCCN)C(=O)N[C@@H](CCSC)C(=O)N[C@@H](Cc1ccc(OP(=O)(O)O)cc1)C(=O)N[C@@H](CC(C)C)C(=O)N[C@@H](CCC(=O)O)C(=O)N[C@@H](CCC(=O)O)C(=O)N[C@@H](CCCNC(=N)N)C(=O)N[C@@H](CCCNC(=N)N)C(=O)N[C@@H](CC(C)C)C(=O)N[C@H](C(=O)N[C@@H](CC(=O)O)C(=O)O)C(C)C [ErbB4 833] (HELM PEPTIDE1{K.G.M.M.[O=C([C@H](Cc1ccc(OP(=O)(O)O)cc1)N[*:1])[*:2]].L.E.E.R.R.L.V.D}$$$$V2.0),Kd,[5],3.46 µM
same,Kd,[7],4.73 µM
CSCC[C@H](NC(=O)[C@H](Cc1ccc(O)cc1)NC(=O)[C@H](CCC(=O)O)NC(=O)[C@H](Cc1ccc(OP(=O)(O)O)cc1)NC(=O)[C@H](CC(=O)O)NC(=O)[C@H](CCC(=O)O)NC(=O)[C@H](CC(=O)O)NC(=O)[C@@H]1CCCN1)C(=O)N[C@@H](CC(N)=O)C(=O)N[C@@H](CCCNC(=N)N)C(=O)N[C@@H](CCC(N)=O)C(=O)N[C@@H](CCCNC(=N)N)C(=O)N[C@@H](CC(=O)O)C(=O)O [ErbB3 pY1260] (HELM PEPTIDE1{P.D.E.D.[O=C([C@H](Cc1ccc(OP(=O)(O)O)cc1)N[*:1])[*:2]].E.Y.M.N.R.Q.R.D}$$$$V2.0),Ki,[9],> 20 µM
same,Kd,[10],≤ 0.1 µM
same,Ki,[11],38.8 µM
CC[C@H](C)[C@H](NC(=O)[C@@H](NC(=O)[C@H](CC(C)C)NC(=O)[C@H](Cc1ccc(OP(=O)(O)O)cc1)NC(=O)[C@H](CCCNC(=N)N)NC(=O)[C@H](CCC(N)=O)NC(=O)[C@@H]1CCCN1C(=O)[C@@H](N)CC(=O)O)C(C)C)C(=O)N[C@@H](CCC(N)=O)C(=O)NCC(=O)N[C@@H](CC(=O)O)C(=O)N[C@@H](CCC(=O)O)C(=O)N[C@@H](CC(=O)O)C(=O)O [ErbB1 978] (HELM PEPTIDE1{D.P.Q.R.[O=C([C@H](Cc1ccc(OP(=O)(O)O)cc1)N[*:1])[*:2]].L.V.I.Q.G.D.E.D}$$$$V2.0),Kd,[5],0.43 µM
same,Kd,[7],1.37 µM
